PubChem BioAssay (NCI)
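Protocol summary: plate cells (96-well), add compound at 5 concentrations, incubate 48 h, interpolate endpoints linearly. Abbreviation: GI50, concentration required for 50% inhibition of growth. TGI is the concentration that stops growth completely.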

Assays:
Experiment in all cases: growth of human tumour cells (NCI), 48 h
IGROV1 ovarian = system: IGROV1 ovarian
U251 CNS = system: U251 CNS
NCI-H226 lung = system: NCI-H226 lung
UACC-257 melanoma = system: UACC-257 melanoma
SF-295 CNS = system: SF-295 CNS
HCC-2998 colon = system: HCC-2998 colon
SW-620 colon = system: SW-620 colon
NCI/ADR-RES ovarian = system: NCI/ADR-RES ovarian
HCT-116 colon = system: HCT-116 colon
HOP-92 NSCLC = system: HOP-92 NSCLC
PC-3 prostate = system: PC-3 prostate
CCRF-CEM leukemia = system: CCRF-CEM leukemia
BT-549 breast = system: BT-549 breast
A549 NSCLC = system: A549 NSCLC
UACC-62 melanoma = system: UACC-62 melanoma
KM12 colon = system: KM12 colon
786-0 renal = system: 786-0 renal
HS 578T breast = system: HS 578T breast
M14 melanoma = system: M14 melanoma
TK-10 renal = system: TK-10 renal
T-47D breast = system: T-47D breast
EKVX NSCLC = system: EKVX NSCLC
NCI-H522 lung = system: NCI-H522 lung
SF-268 CNS = system: SF-268 CNS
RPMI-8226 leukemia = system: RPMI-8226 leukemia
MALME-3M melanoma = system: MALME-3M melanoma
OVCAR-8 ovarian = system: OVCAR-8 ovarian
A498 renal = system: A498 renal
K-562 leukemia = system: K-562 leukemia
RXF 393 renal = system: RXF 393 renal
SNB-19 CNS = system: SNB-19 CNS
CAKI-1 renal = system: CAKI-1 renal
HOP-62 NSCLC = system: HOP-62 NSCLC
NCI-H23 lung = system: NCI-H23 lung
LOX IMVI melanoma = system: LOX IMVI melanoma
HT29 colon = system: HT29 colon
SN12C renal = system: SN12C renal
NCI-H460 lung = system: NCI-H460 lung
SK-OV-3 ovarian = system: SK-OV-3 ovarian
HL-60(TB) leukemia = system: HL-60(TB) leukemia
SK-MEL-28 melanoma = system: SK-MEL-28 melanoma
UO-31 renal = system: UO-31 renal
OVCAR-5 ovarian = system: OVCAR-5 ovarian
MDA-MB-231 breast = system: MDA-MB-231 breast
HCT-15 colon = system: HCT-15 colon
SK-MEL-2 melanoma = system: SK-MEL-2 melanoma
SR leukemia = system: SR leukemia
MDA-MB-435 = system: MDA-MB-435
OVCAR-4 ovarian = system: OVCAR-4 ovarian
SK-MEL-5 melanoma = system: SK-MEL-5 melanoma
SNB-75 CNS = system: SNB-75 CNS
MCF7 breast = system: MCF7 breast
DU-145 prostate = system: DU-145 prostate
SF-539 CNS = system: SF-539 CNS
ACHN renal = system: ACHN renal
MOLT-4 leukemia = system: MOLT-4 leukemia
OVCAR-3 ovarian = system: OVCAR-3 ovarian
COLO 205 colon = system: COLO 205 colon

## COC(=O)[C@@H](OC)[C@@H]1Cc2cc3cc(OC4CC(OC5CC(O)C(O)C(C)O5)C(O)C(C)O4)c(C)c(O)c3c(O)c2C(=O)[C@H]1OC1CC(OC2CC(OC3CC(C)(O)C(O)C(C)O3)C(O)C(C)O2)C(O)C(C)O1 (stereo partly specified)
IGROV1 ovarian
  GI50: 0.0299 µM
  TGI: > 16.5 µM
U251 CNS
  GI50: 0.0385 µM
  TGI: > 16.5 µM
NCI-H226 lung
  GI50: 0.0384 µM
  TGI: 0.125 µM
UACC-257 melanoma
  GI50: 0.0507 µM
  TGI: 0.497 µM
SF-295 CNS
  GI50: 0.0357 µM
  TGI: > 5.45 µM
HCC-2998 colon
  GI50: 0.0365 µM
  TGI: 0.252 µM
SW-620 colon
  GI50: 0.04 µM
  TGI: > 16.5 µM
NCI/ADR-RES ovarian
  GI50: 0.688 µM
  TGI: > 16.5 µM
HCT-116 colon
  GI50: 0.0246 µM
  TGI: > 16.5 µM
HOP-92 NSCLC
  GI50: 0.0365 µM
  TGI: 0.119 µM
PC-3 prostate
  GI50: 0.0429 µM
  TGI: 0.188 µM
CCRF-CEM leukemia
  GI50: 0.035 µM
  TGI: > 7.4 µM
BT-549 breast
  GI50: 0.0186 µM
  TGI: 0.0974 µM
A549 NSCLC
  GI50: 0.0484 µM
  TGI: > 16.5 µM
UACC-62 melanoma
  GI50: 0.0194 µM
  TGI: 0.0469 µM
KM12 colon
  GI50: 0.0404 µM
  TGI: 3.72 µM
786-0 renal
  GI50: 0.0302 µM
  TGI: > 16.5 µM
HS 578T breast
  GI50: 0.0399 µM
  TGI: 0.223 µM
M14 melanoma
  GI50: 0.0382 µM
  TGI: 0.157 µM
TK-10 renal
  GI50: 0.0438 µM
  TGI: > 16.5 µM
T-47D breast
  GI50: 0.0421 µM
  TGI: > 16.5 µM
EKVX NSCLC
  GI50: 0.0457 µM
  TGI: 1.22 µM
NCI-H522 lung
  GI50: 0.0358 µM
  TGI: 0.172 µM
SF-268 CNS
  GI50: 0.0455 µM
  TGI: > 7.49 µM
RPMI-8226 leukemia
  GI50: 0.0329 µM
  TGI: 0.112 µM
MALME-3M melanoma
  GI50: 0.034 µM
  TGI: 0.0839 µM
OVCAR-8 ovarian
  GI50: 0.0393 µM
  TGI: > 16.5 µM
A498 renal
  GI50: 0.0277 µM
  TGI: 0.0717 µM
K-562 leukemia
  GI50: 0.0407 µM
  TGI: > 16.5 µM
RXF 393 renal
  GI50: 0.0263 µM
  TGI: 0.0623 µM
SNB-19 CNS
  GI50: 0.0449 µM
  TGI: > 8.89 µM
CAKI-1 renal
  GI50: 0.0425 µM
HOP-62 NSCLC
  GI50: 0.0312 µM
  TGI: 1.8 µM
NCI-H23 lung
  GI50: 0.0345 µM
LOX IMVI melanoma
  GI50: 0.026 µM
  TGI: > 5.38 µM
HT29 colon
  GI50: 0.039 µM
SN12C renal
  GI50: 0.0389 µM
  TGI: > 16.5 µM
NCI-H460 lung
  GI50: 0.0429 µM
  TGI: > 16.5 µM
SK-OV-3 ovarian
  GI50: 0.0811 µM
  TGI: > 16.5 µM
HL-60(TB) leukemia
  GI50: 0.0405 µM
  TGI: 0.74 µM
SK-MEL-28 melanoma
  GI50: 0.0312 µM
  TGI: 0.106 µM
UO-31 renal
  GI50: 0.0335 µM
  TGI: 0.12 µM
OVCAR-5 ovarian
  GI50: 0.0524 µM
  TGI: > 16.5 µM
MDA-MB-231 breast
  GI50: 0.0479 µM
  TGI: 0.148 µM
HCT-15 colon
  GI50: 0.0575 µM
  TGI: > 16.5 µM
SK-MEL-2 melanoma
  GI50: 0.0355 µM
  TGI: 0.0777 µM
SR leukemia
  GI50: 0.0103 µM
  TGI: > 16.5 µM
MDA-MB-435
  GI50: 0.0274 µM
  TGI: 0.0605 µM
OVCAR-4 ovarian
  GI50: 0.0413 µM
  TGI: 0.553 µM
SK-MEL-5 melanoma
  GI50: 0.0327 µM
  TGI: 0.0892 µM
SNB-75 CNS
  GI50: 0.0212 µM
  TGI: 0.0487 µM
MCF7 breast
  GI50: 0.0275 µM
  TGI: > 16.5 µM
DU-145 prostate
  GI50: 0.0433 µM
  TGI: > 16.5 µM
SF-539 CNS
  GI50: 0.025 µM
  TGI: 0.082 µM
ACHN renal
  GI50: 0.0313 µM
  TGI: > 16.5 µM
MOLT-4 leukemia
  GI50: 0.0453 µM

## Cc1cc(S(N)(=O)=O)c(S/C(=N\Nc2ccc([N+](=O)[O-])cc2)c2ccc3ccccc3c2)cc1Cl
IGROV1 ovarian
  GI50: 54.3 µM
  TGI: > 100 µM
U251 CNS
  GI50: 19.7 µM
  TGI: 59.4 µM
NCI-H226 lung
  GI50: 18.4 µM
  TGI: 38.3 µM
UACC-257 melanoma
  GI50: 30.1 µM
  TGI: 78.3 µM
SF-295 CNS
  GI50: 20 µM
  TGI: 66.2 µM
HCC-2998 colon
  GI50: 14.7 µM
  TGI: 30.1 µM
SW-620 colon
  GI50: 33.4 µM
  TGI: > 100 µM
NCI/ADR-RES ovarian
  GI50: 13.9 µM
  TGI: 41.9 µM
OVCAR-3 ovarian
  GI50: 17.5 µM
  TGI: 58.5 µM
HCT-116 colon
  GI50: 4.67 µM
  TGI: > 100 µM
HOP-92 NSCLC
  GI50: 1.32 µM
  TGI: 19.6 µM
PC-3 prostate
  GI50: 14.2 µM
  TGI: 27.4 µM
CCRF-CEM leukemia
  GI50: 50.4 µM
  TGI: > 100 µM
BT-549 breast
  GI50: 20.5 µM
  TGI: 69.7 µM
A549 NSCLC
  GI50: 54.1 µM
  TGI: > 100 µM
UACC-62 melanoma
  GI50: 15.6 µM
  TGI: 28.9 µM
KM12 colon
  GI50: 25.2 µM
  TGI: 99 µM
786-0 renal
  GI50: 18.7 µM
  TGI: 42.9 µM
HS 578T breast
  GI50: 2.19 µM
  TGI: 8.86 µM
M14 melanoma
  GI50: 44.1 µM
  TGI: > 100 µM
TK-10 renal
  GI50: 7.46 µM
  TGI: 31.7 µM
T-47D breast
  TGI: 83.7 µM
EKVX NSCLC
  GI50: 17.9 µM
  TGI: 64.3 µM
NCI-H522 lung
  GI50: 22.9 µM
  TGI: > 100 µM
SF-268 CNS
  GI50: 10.1 µM
  TGI: 44.4 µM
RPMI-8226 leukemia
  GI50: 37.7 µM
  TGI: > 100 µM
MALME-3M melanoma
  GI50: 11.7 µM
  TGI: 25.7 µM
OVCAR-8 ovarian
  GI50: 14 µM
  TGI: > 100 µM
K-562 leukemia
  GI50: 28 µM
  TGI: > 100 µM
RXF 393 renal
  GI50: 8.69 µM
  TGI: 54.8 µM
SNB-19 CNS
  GI50: 67.5 µM
  TGI: > 100 µM
CAKI-1 renal
  GI50: 17.5 µM
  TGI: 48.8 µM
HOP-62 NSCLC
  GI50: 22.8 µM
  TGI: 68.5 µM
NCI-H23 lung
  GI50: 16.4 µM
  TGI: 30.2 µM
LOX IMVI melanoma
  GI50: 20.3 µM
  TGI: 40.9 µM
HT29 colon
  GI50: 73.2 µM
  TGI: > 100 µM
SN12C renal
  GI50: 18.6 µM
  TGI: 44.1 µM
NCI-H460 lung
  GI50: 18.5 µM
  TGI: > 100 µM
SK-OV-3 ovarian
  GI50: 20.4 µM
  TGI: 55.8 µM
HL-60(TB) leukemia
  GI50: > 100 µM
  TGI: > 100 µM
SK-MEL-28 melanoma
  GI50: 35.1 µM
  TGI: > 100 µM
UO-31 renal
  GI50: 56 µM
  TGI: > 100 µM
OVCAR-5 ovarian
  GI50: 14.8 µM
  TGI: 27.9 µM
MDA-MB-231 breast
  GI50: 13.4 µM
  TGI: 29.6 µM
HCT-15 colon
  GI50: 20.1 µM
  TGI: 41 µM
SK-MEL-2 melanoma
  GI50: > 100 µM
  TGI: > 100 µM
SR leukemia
  GI50: 42.6 µM
  TGI: > 100 µM
MDA-MB-435
  GI50: 22.2 µM
  TGI: 64.9 µM
OVCAR-4 ovarian
  GI50: 61.1 µM
  TGI: > 100 µM
SK-MEL-5 melanoma
  GI50: 16.5 µM
  TGI: 36.8 µM
SNB-75 CNS
  GI50: 56.7 µM
  TGI: > 100 µM
MCF7 breast
  GI50: 19.9 µM
  TGI: > 100 µM
DU-145 prostate
  GI50: 13.2 µM
  TGI: 43 µM
COLO 205 colon
  GI50: 84 µM
  TGI: > 100 µM
SF-539 CNS
  GI50: 4.1 µM
  TGI: 18.7 µM
ACHN renal
  GI50: 17 µM
  TGI: 30.7 µM
MOLT-4 leukemia
  GI50: 73.9 µM
  TGI: > 100 µM
